Results from publication PMC11859928, “Design, Synthesis, and Antiproliferative Activity of Novel Indole/1,2,4-Triazole Hybrids as Tubulin Polymerization Inhibitors” (Pharmaceuticals, 2025).

Assays:
Type in all cases: cell-based, human
A549/ATCC = experiment: NCI five-dose assay; conditions: five dose levels
U251 = experiment: NCI five-dose assay; conditions: U251, five dose levels
HS 578T = experiment: NCI five-dose assay; conditions: five dose levels
CAKI-1 = experiment: NCI five-dose assay; conditions: CAKI-1, five dose levels
RXF393 = experiment: NCI five-dose assay; conditions: RXF393, five dose levels
SF-539 = experiment: NCI five-dose assay; conditions: SF-539, five dose levels
IGROV1 = experiment: NCI five-dose assay; conditions: IGROV1, five dose levels
MDA-MB-468 = experiment: NCI five-dose assay; conditions: MDA-MB-468, five dose levels
RPMI-8226 = experiment: NCI five-dose assay; conditions: RPMI-8226, five dose levels
HL-60(TB) = experiment: NCI five-dose assay; conditions: five dose levels
ACHN = experiment: NCI five-dose assay; conditions: five dose levels
Ovarian cancer subpanel = experiment: NCI five-dose assay, subpanel mean
NCI-H226 = experiment: NCI five-dose assay; conditions: Homo sapiens, NCI-H226, five dose levels
Leukemia subpanel = experiment: NCI five-dose assay, subpanel mean
[1] = tested on: Non-small cell lung cancer subpanel; experiment: NCI five-dose assay, subpanel mean
NCI-H322M = experiment: NCI five-dose assay; conditions: five dose levels
A498 = experiment: NCI five-dose assay; conditions: A498, five dose levels
Colon cancer subpanel = experiment: NCI five-dose assay, subpanel mean
OVCAR-4 = experiment: NCI five-dose assay; conditions: OVCAR-4, five dose levels
MOLT-4 = experiment: NCI five-dose assay; conditions: MOLT-4, five dose levels
CCRF-CEM = experiment: NCI five-dose assay; conditions: Homo sapiens, five dose levels
MDA/MB-231-ATCC = experiment: NCI five-dose assay; conditions: five dose levels
SN12C = experiment: NCI five-dose assay; conditions: five dose levels
M14 = experiment: NCI five-dose assay; conditions: M14, five dose levels
Renal cancer subpanel = experiment: NCI five-dose assay, subpanel mean
BT-549 = experiment: NCI five-dose assay; conditions: BT-549, five dose levels
HOP-92 = experiment: NCI five-dose assay; conditions: HOP-92, five dose levels
[2] = Homo sapiens, read-out: GI50 Conc. per Cell Lines
[3] = Homo sapiens, read-out: LC50 (the source's name)
[4] = read-out: GI50 Conc. per Cell Lines
[5] = read-out: LC50 (the source's name)

SMILES: O/N=C(\CSc1nnc(-c2c[nH]c3ccccc23)n1-c1ccccc1)c1ccc(Cl)cc1 [Compound 7j, (Z)-2-((5-(1H-Indol-3-yl)-4-phenyl-4H-1,2,4-triazol-3-yl)thio)-1-(4-chlorophenyl) Ethanone Oxime]
- GI50 (A549/ATCC; [2]): 3.35 µM
- CC50 (A549/ATCC; [3]): > 100 µM
- TGI Conc. per Cell Lines (A549/ATCC): 16.8 µM
- GI50 (U251; Homo sapiens, U-251, read-out: GI50 Conc. per Cell Lines): 4.73 µM
- CC50 (U251; Homo sapiens, U-251, read-out: LC50 (the source's name)): 46.9 µM
- TGI Conc. per Cell Lines (U251): 81.2 µM
- LC50 (HS 578T; Homo sapiens): > 100 µM
- GI50 (HS 578T; [2]): 3.09 µM
- TGI Conc. per Cell Lines (HS 578T): 16.6 µM
- TGI Conc. per Cell Lines (CAKI-1): 12.4 µM
- LC50 (CAKI-1; Homo sapiens): > 100 µM
- GI50 (CAKI-1; [2]): 2.93 µM
- LC50 (concentration killing 50% of cells) (RXF393; Homo sapiens, RXF 393): 46.3 µM
- GI50 (RXF393; Homo sapiens, RXF 393, read-out: GI50 Conc. per Cell Lines): 2.22 µM
- TGI Conc. per Cell Lines (RXF393): 6.29 µM
- GI50 (SF-539; [2]): 10.2 µM
- CC50 (SF-539; [3]): 51.2 µM
- TGI Conc. per Cell Lines (SF-539): 29.5 µM
- GI50 (IGROV1; Homo sapiens, IGROV-1, read-out: GI50 Conc. per Cell Lines): 5.35 µM
- CC50 (IGROV1; Homo sapiens, IGROV-1, read-out: LC50 (the source's name)): > 100 µM
- TGI Conc. per Cell Lines (IGROV1): 19.8 µM
- LC50 (MDA-MB-468; Homo sapiens): 46 µM
- GI50 (MDA-MB-468; [2]): 1.72 µM
- TGI Conc. per Cell Lines (MDA-MB-468): 3.47 µM
- GI50 (RPMI-8226; [2]): 2.38 µM
- CC50 (RPMI-8226; [3]): > 100 µM
- TGI Conc. per Cell Lines (RPMI-8226): 7.29 µM
- GI50 (HL-60(TB); [2]): 2.17 µM
- CC50 (HL-60(TB); [3]): > 100 µM
- TGI Conc. per Cell Lines (HL-60(TB)): 6.34 µM
- LC50 (ACHN; Homo sapiens): > 100 µM
- GI50 (ACHN; [2]): 3.69 µM
- TGI Conc. per Cell Lines (ACHN): 14.5 µM
- GI50 (Ovarian cancer subpanel; Homo sapiens, Ovarian cancer, average sensitivity of all cell lines of the subpanel, read-out: GI50 Subpanel MID b): 3.61 µM
- GI50 Selectivity Ratio (MID a/MID b) (Ovarian cancer subpanel; Ovarian cancer subpanel): 1.01
- GI50 (NCI-H226; [4]): 3.99 µM
- CC50 (NCI-H226; [5]): 61.8 µM
- GI50 (Leukemia subpanel; Homo sapiens, Leukemia, average sensitivity of all cell lines of the subpanel, read-out: GI50 Subpanel MID b): 2.8 µM
- GI50 Selectivity Ratio (MID a/MID b) (Leukemia subpanel; Leukemia subpanel): 1.30
- GI50 ([1]; Homo sapiens, Non-small cell lung cancer, average sensitivity of all cell lines of the subpanel, read-out: GI50 Subpanel MID b): 3.86 µM
- GI50 Selectivity Ratio (MID a/MID b) ([1]; Non-small cell lung cancer subpanel): 0.945
- GI50 (NCI-H322M; [2]): 5.71 µM
- CC50 (NCI-H322M; [3]): > 100 µM
- TGI Conc. per Cell Lines (NCI-H322M): 7.33 µM
- TGI Conc. per Cell Lines (A498): 65.8 µM
- LC50 (A498; Homo sapiens): 88.6 µM
- GI50 (A498; [2]): 15.4 µM
- GI50 Selectivity Ratio (MID a/MID b) (Colon cancer subpanel; Colon cancer subpanel): 0.978
- GI50 (Colon cancer subpanel; Homo sapiens, Colon cancer, average sensitivity of all cell lines of the subpanel, read-out: GI50 Subpanel MID b): 3.73 µM
- LC50 (OVCAR-4; Homo sapiens): > 100 µM
- GI50 (OVCAR-4; [2]): 1.96 µM
- TGI Conc. per Cell Lines (OVCAR-4): 4.32 µM
- GI50 (MOLT-4; [2]): 2.16 µM
- CC50 (MOLT-4; [3]): > 100 µM
- TGI Conc. per Cell Lines (MOLT-4): 5.69 µM
- GI50 (CCRF-CEM; [4]): 2.85 µM
- CC50 (CCRF-CEM; [5]): > 100 µM
- LC50 (MDA/MB-231-ATCC; Homo sapiens): > 100 µM
- GI50 (MDA/MB-231-ATCC; [2]): 1.87 µM
- TGI Conc. per Cell Lines (MDA/MB-231-ATCC): 3.66 µM
- GI50 (SN12C; [2]): 3.79 µM
- CC50 (SN12C; [3]): > 100 µM
- TGI Conc. per Cell Lines (SN12C): 16.3 µM
- GI50 (M14; [2]): 3.15 µM
- CC50 (M14; [3]): > 100 µM
- TGI Conc. per Cell Lines (M14): 14.1 µM
- GI50 (Renal cancer subpanel; Homo sapiens, Renal cancer, average sensitivity of all cell lines of the subpanel, read-out: GI50 Subpanel MID b): 5.23 µM
- GI50 Selectivity Ratio (MID a/MID b) (Renal cancer subpanel; Renal cancer subpanel): 0.69
- TGI Conc. per Cell Lines (BT-549): 11.1 µM
- GI50 (BT-549; [2]): 3.71 µM
- CC50 (BT-549; [3]): 6.28 µM
- TGI Conc. per Cell Lines (HOP-92): 37.6 µM
- GI50 (HOP-92; [2]): 3.84 µM
- CC50 (HOP-92; [3]): > 100 µM
